Test results as given in patent publication US6608004B2, “Substituted 2-aryl-1,2,4-triazine-3,5-di(thi)ones” (priority 1999, dated 2003).
Read-outs that look alike come from different tables or passages of the source.

Tests used:
[1] = test system: crop plants, such as, for example, barley, wheat, rapeseed, soya and sugar beet; assay: Pre-Emergence Test (Example A), tolerance by crop plants; assay type: in vivo
From the text: (§1) Solvent: 5 parts by weight of acetone
(§2) Emulsifier: 1 part by weight of alkylaryl polyglycol ether
(§3) Seeds of the test plants are sown in normal soil.

[2] = logP determination by HPLC, reversed-phase column (C 18), EEC Directive 79/831 Annex V.A8
From the text: (a) Mobile phases for the determination in the acidic range: 0.1% aqueous phosphoric acid, acetonitrile; linear gradient from 10% acetonitrile to 90% acetonitrile—the corresponding measurement results are labelled in Table 1 with ^a).
(b) Mobile phases for the determination in the neutral range: 0.01 molar aqueous phosphate buffer solution, acetonitrile; linear gradient from 10% acetonitrile to 90% acetonitrile—the corresponding measurement results are labelled in Table 1 with ^b).

[3] = test system: crop plants, such as, for example, barley and wheat; assay: Post-Emergence Test (Example B), tolerance by crop plants
From the text: as §1, §2
(§4) After three weeks, the degree of damage to the plants is rated in % damage in comparison to the development of the untreated control.

[4] = test system: weeds; assay: Pre-Emergence Test (Example A), activity against weeds; assay type: in vivo; conditions: soil sprayed about 24 hours after sowing, rated after three weeks
From the text: as §1, §2, §3
0%=no effect (like untreated control)

[5] = test system: weeds; assay: Post-Emergence Test (Example B), activity against weeds; assay type: in vivo; conditions: test plants of a height of 5-15 cm sprayed, rated after three weeks
From the text: as §1, §2, §4

[6] = pre-emergence, barley, wheat, rapeseed, soya and sugar beet, rated after three weeks
[7] = a) acidic range: 0.1% aqueous phosphoric acid, acetonitrile gradient, HPLC C 18, 43° C.
[8] = post-emergence, barley and wheat, rated after three weeks

CCC(Oc1ccccc1)C(=O)N(c1cc(-n2ncc(=O)n(C)c2=O)c(F)cc1C#N)S(=O)(=O)CC (racemic) [Example 33]
tolerance by crop plants ([1]; in vivo): essentially being tolerated well
logP a) [2]: m.p.: 128 °C logP = 3.12^a)
tolerance by crop plants ([3]; in vivo): essentially being tolerated well
activity against weeds (degree of damage) [4]: very strong activity
activity against weeds (degree of damage) [5]: very strong activity

CCS(=O)(=O)N(C(=O)C1CCCC1)c1cc(-n2ncc(=O)n(C)c2=O)c(F)cc1C#N [Example 47]
tolerance by crop plants ([1]; in vivo): essentially being tolerated well
logP a) [2]: m.p.: 93 °C logP = 2.66^a)
tolerance by crop plants ([3]; in vivo): essentially being tolerated well
activity against weeds (degree of damage) [4]: very strong activity
activity against weeds (degree of damage) [5]: very strong activity

CCS(=O)(=O)N(C(=O)COc1ccccc1Cl)c1cc(-n2ncc(=O)n(C)c2=O)c(F)cc1C#N [Example 35]
tolerance by crop plants ([1]; in vivo): essentially being tolerated well
logP a) [2]: m.p.: 220 °C logP = 2.89^a)
tolerance by crop plants ([3]; in vivo): essentially being tolerated well
activity against weeds (degree of damage) [4]: very strong activity
activity against weeds (degree of damage) [5]: very strong activity

N#Cc1cc(F)c(-n2ncc(=O)[nH]c2=O)cc1F
melting point: > 250 °C

CCS(=O)(=O)N(C(=O)C(C)C)c1cc(-n2ncc(=O)n(C)c2=O)c(F)cc1C#N [Example 13]
tolerance by crop plants ([1]; in vivo): essentially being tolerated well
logP a) [2]: logP = 2.50^a)
tolerance by crop plants ([3]; in vivo): essentially being tolerated well
activity against weeds (degree of damage) [4]: very strong activity
activity against weeds (degree of damage) [5]: very strong activity

CCS(=O)(=O)N(C(=O)COc1ccccc1)c1cc(-n2ncc(=O)n(C)c2=O)c(F)cc1C#N [Example 43]
tolerance by crop plants ([1]; in vivo): essentially being tolerated well
logP a) [2]: m.p.: 222 °C logP = 2.96^a)
tolerance by crop plants ([3]; in vivo): essentially being tolerated well
activity against weeds (degree of damage) [4]: very strong activity
activity against weeds (degree of damage) [5]: very strong activity

CCS(=O)(=O)N(C(=O)Cc1ccc(Cl)cc1)c1cc(-n2ncc(=O)n(C)c2=O)c(F)cc1C#N [Example 42]
tolerance by crop plants ([1]; in vivo): essentially being tolerated well
logP a) [2]: m.p.: 222 °C logP = 2.96^a)
tolerance by crop plants ([3]; in vivo): essentially being tolerated well
activity against weeds (degree of damage) [4]: very strong activity
activity against weeds (degree of damage) [5]: very strong activity

CCS(=O)(=O)N(C(=O)c1nn(C)c(OC(F)F)c1C)c1cc(-n2ncc(=O)n(C)c2=O)c(F)cc1C#N [Example 23]
tolerance by crop plants ([1]; in vivo): essentially being tolerated well
logP a) [2]: m.p.: 187 °C logP = 2.82^a)
tolerance by crop plants ([3]; in vivo): essentially being tolerated well
activity against weeds (degree of damage) [4]: very strong activity
activity against weeds (degree of damage) [5]: very strong activity

CCCCC(CC)C(=O)N(c1cc(-n2ncc(=O)n(C)c2=O)c(F)cc1C#N)S(=O)(=O)CC (racemic) [Example 7]
tolerance by crop plants ([1]; in vivo): essentially being tolerated well
logP a) [2]: m.p.: 140 °C logP = 3.53^a)
tolerance by crop plants ([3]; in vivo): essentially being tolerated well
activity against weeds (degree of damage) [4]: very strong activity
activity against weeds (degree of damage) [5]: very strong activity

CCS(=O)(=O)N(C(=O)CC(C)(C)C)c1cc(-n2ncc(=O)n(C)c2=O)c(F)cc1C#N [Example 19]
tolerance by crop plants ([1]; in vivo): essentially being tolerated well
logP a) [2]: logP = 2.94^a)
tolerance by crop plants ([3]; in vivo): essentially being tolerated well
activity against weeds (degree of damage) [4]: very strong activity
activity against weeds (degree of damage) [5]: very strong activity

CCS(=O)(=O)N(C(=O)C(C)Cl)c1cc(-n2ncc(=O)n(C)c2=O)c(F)cc1C#N (racemic) [Example 61]
tolerance by crop plants ([1]; in vivo): essentially being tolerated well
logP a) [2]: logP = 2.38^a)
tolerance by crop plants ([3]; in vivo): essentially being tolerated well
activity against weeds (degree of damage) [4]: very strong activity
activity against weeds (degree of damage) [5]: very strong activity

CCS(=O)(=O)N(C(=O)C1CCCCC1)c1cc(-n2ncc(=O)n(C)c2=O)c(F)cc1C#N [Example 16]
tolerance by crop plants [1, 6]: essentially being tolerated well
logP a) [2, 7]: m.p.: 182 °C logP = 2.46^a)
tolerance by crop plants [3, 8]: essentially being tolerated well
activity against weeds (degree of damage) [4]: very strong activity
activity against weeds (degree of damage) [5]: very strong activity

CCS(=O)(=O)N(C(=O)CCc1ccc(Cl)c(Cl)c1)c1cc(-n2ncc(=O)n(C)c2=O)c(F)cc1C#N [Example 44]
tolerance by crop plants ([1]; in vivo): essentially being tolerated well
logP a) [2]: m.p.: 142 °C logP = 2.52^a)
tolerance by crop plants ([3]; in vivo): essentially being tolerated well
activity against weeds (degree of damage) [4]: very strong activity
activity against weeds (degree of damage) [5]: very strong activity

CCS(=O)(=O)N(C(=O)C(C)(C)C)c1cc(-n2ncc(=O)n(C)c2=O)c(F)cc1C#N [Example 10]
tolerance by crop plants ([1]; in vivo): essentially being tolerated well
logP a) [2]: logP = 2.71^a)
tolerance by crop plants ([3]; in vivo): essentially being tolerated well
activity against weeds (degree of damage) [4]: very strong activity
activity against weeds (degree of damage) [5]: very strong activity

CCS(=O)(=O)N(C(=O)c1ccco1)c1cc(-n2ncc(=O)n(C)c2=O)c(F)cc1C#N [Example 14]
tolerance by crop plants ([1]; in vivo): essentially being tolerated well
logP a) [2]: m.p.: 90 °C logP = 2.31^a)
tolerance by crop plants ([3]; in vivo): essentially being tolerated well
activity against weeds (degree of damage) [4]: very strong activity
activity against weeds (degree of damage) [5]: very strong activity

CCS(=O)(=O)N(C(=O)C=C(C)C)c1cc(-n2ncc(=O)n(C)c2=O)c(F)cc1C#N [Example 32]
tolerance by crop plants [1, 6]: essentially being tolerated well
logP a) [2, 7]: m.p.: 150 °C logP = 2.40^a)
tolerance by crop plants [3, 8]: essentially being tolerated well
activity against weeds (degree of damage) [4]: very strong activity
activity against weeds (degree of damage) [5]: very strong activity

CCOc1ccc(CCC(=O)N(c2cc(-n3ncc(=O)n(C)c3=O)c(F)cc2C#N)S(=O)(=O)CC)cc1 [Example 51]
tolerance by crop plants ([1]; in vivo): essentially being tolerated well
logP a) [2]: m.p.: 74 °C logP = 3.22^a)
tolerance by crop plants ([3]; in vivo): essentially being tolerated well
activity against weeds (degree of damage) [4]: very strong activity
activity against weeds (degree of damage) [5]: very strong activity

CCS(=O)(=O)N(C(=O)CCCCl)c1cc(-n2ncc(=O)n(C)c2=O)c(F)cc1C#N [Example 27]
tolerance by crop plants ([1]; in vivo): essentially being tolerated well
logP a) [2]: logP = 2.43^a)
tolerance by crop plants ([3]; in vivo): essentially being tolerated well
activity against weeds (degree of damage) [4]: very strong activity
activity against weeds (degree of damage) [5]: very strong activity

CCS(=O)(=O)N(C(C)=O)c1cc(-n2ncc(=O)n(C)c2=O)c(F)cc1C#N [Example 28]
tolerance by crop plants ([1]; in vivo): essentially being tolerated well
logP a) [2]: logP = 1.79^a)
tolerance by crop plants ([3]; in vivo): essentially being tolerated well
activity against weeds (degree of damage) [4]: very strong activity
activity against weeds (degree of damage) [5]: very strong activity

CCS(=O)(=O)N(C(=O)CC(C)C)c1cc(-n2ncc(=O)n(C)c2=O)c(F)cc1C#N [Example 20]
tolerance by crop plants ([1]; in vivo): essentially being tolerated well
logP a) [2]: logP = 2.65^a)
tolerance by crop plants ([3]; in vivo): essentially being tolerated well
activity against weeds (degree of damage) [4]: very strong activity
activity against weeds (degree of damage) [5]: very strong activity

CCS(=O)(=O)N(C(=O)Cc1ccc(OC)cc1)c1cc(-n2ncc(=O)n(C)c2=O)c(F)cc1C#N [Example 45]
tolerance by crop plants ([1]; in vivo): essentially being tolerated well
logP a) [2]: m.p.: 221 °C logP = 2.58^a)
tolerance by crop plants ([3]; in vivo): essentially being tolerated well
activity against weeds (degree of damage) [4]: very strong activity
activity against weeds (degree of damage) [5]: very strong activity

CCS(=O)(=O)N(C(=O)CCC1CCCCC1)c1cc(-n2ncc(=O)n(C)c2=O)c(F)cc1C#N [Example 31]
tolerance by crop plants ([1]; in vivo): essentially being tolerated well
logP a) [2]: m.p.: 123 °C logP = 3.66^a)
tolerance by crop plants ([3]; in vivo): essentially being tolerated well
activity against weeds (degree of damage) [4]: very strong activity
activity against weeds (degree of damage) [5]: very strong activity

CCS(=O)(=O)N(C(=O)c1ccc(F)cc1)c1cc(-n2ncc(=O)n(C)c2=O)c(F)cc1C#N [Example 26]
tolerance by crop plants ([1]; in vivo): essentially being tolerated well
logP a) [2]: m.p.: 123 °C logP = 2.60^a)
tolerance by crop plants ([3]; in vivo): essentially being tolerated well
activity against weeds (degree of damage) [4]: very strong activity
activity against weeds (degree of damage) [5]: very strong activity

CCS(=O)(=O)N(C(=O)CCl)c1cc(-n2ncc(=O)n(C)c2=O)c(F)cc1C#N [Example 4]
tolerance by crop plants ([1]; in vivo): essentially being tolerated well
logP a) [2]: logP = 2.09^a)
tolerance by crop plants ([3]; in vivo): essentially being tolerated well
activity against weeds (degree of damage) [4]: very strong activity
activity against weeds (degree of damage) [5]: very strong activity
